{
  "source": "patent US8008324B2",
  "about": "“Indole derivatives and their use as medicament” (AEterna Zentaris GmbH, priority 2000, dated 2011)",
  "key": {"[1]": {"system": "murine lymphocyte leukaemia L1210 (ATCC CCL-219)", "assay": "XTT proliferation test, L1210", "type": "cell-based", "conditions": "L-1210, eight substance concentrations", "method": "(§1) In a proliferation test, the antiproliferative activity of the substance D-69429 was examined using established tumor cell lines. In the test used, the cellular dehydrogenation activity is determined, which makes it possible to determine the vitality of the cell and, indirectly, the cell count. The cell lines used are the human cervical carcinoma cell line KB/HeLa (ATCC CCL17), the murine lymphocyte a leukaemia L1210 (ATCC CCL-219), the human breast adenocarcinoma line MCF7 (ATCC HTB22) and the ovary adenocarcinoma line SKOV-3 (ATCC HTB77). These are established cell lines which are very well characterized and were obtained from ATCC and cultured.\n(§2) The adherently growing tumor cell lines HeLa/KB, SKOV-3 and MCF7 and the L1210 leukaemia line, which grows in suspension, were cultivated under standard conditions in an incubator with gas inlet at 37° C., 5% CO2 and 95% atmospheric humidity. […]\n(§3) For the XTT assay, 1 mg/ml of XTT (sodium 3′-[1-(phenylaminocarbonyl)-3,4-tetrazolium]-bis(4-methoxy-6-nitro)benzenesulfonic acid) is dissolved in RPMI-1640 medium without Phenol Red. […] The cell plates are then incubated in the incubator with gas inlet for a further 3 h, and the optical density (OD490nm) is determined in a photometer.\n(§4) Using the OD490nm obtained, the inhibition in percent relative to the control is calculated. […]"}, "[2]": {"system": "human cervical carcinoma cell line KB/HeLa (ATCC CCL17)", "assay": "XTT proliferation test, KB/HeLa", "type": "cell-based", "conditions": "eight substance concentrations", "method": "as §1, §2, §3, §4"}, "[3]": {"system": "ovary adenocarcinoma line SKOV-3 (ATCC HTB77)", "assay": "XTT proliferation test, SKOV-3", "type": "cell-based, human", "conditions": "SKOV-3, eight substance concentrations", "method": "as §1, §2, §3, §4"}, "[4]": {"system": "human breast adenocarcinoma line MCF7 (ATCC HTB22)", "assay": "XTT proliferation test, MCF7", "type": "cell-based", "method": "as §1, §2, §3, §4"}},
  "data": [
    {"smiles": "Cc1ccc2cc(NC(=O)C(=O)c3cn(Cc4ccc(Cl)cc4)c4ccccc34)ccc2n1", "note": "[Example D-69429, N-(2-methyl-6-quinolyl)-[1-(4-chlorobenzyl)indole-3-yl]glyoxylamide]", "values": [
      {"measurement": "melting point", "result": "182 to 185", "unit": "°C"},
      {"measurement": "antiproliferative action", "setting": "[1]", "result": "highly potent antiproliferative action"},
      {"measurement": "antiproliferative action", "setting": "[2]", "result": "highly potent antiproliferative action"},
      {"measurement": "antiproliferative action", "setting": "[3]", "result": "highly potent antiproliferative action"},
      {"measurement": "inhibition at 3.16 µg/mL", "setting": "[4]; MCF7, at 3.16 μg/ml, test period 48 h", "result": 18, "unit": "%"},
      {"measurement": "IC50", "setting": "[4]; MCF7, test period 48 h, regression analysis, read-out: antiproliferative activity (stated as >3.16)", "result": "> 3.16", "unit": "mg/L"}
    ]}
  ]
}
